Laboratory results published in patent US20210380929A1, “METHODS, APPARATUS AND KITS FOR BACTERIAL CELL LYSIS” (TECHNISCHE UNIVERSITÄT WIEN, priority 2018, published 2021).

System: Enterococcus faecalis type strain NCTC 775
Assay type: cell-based

CC(=O)O.CCn1cc[n+](C)c1 [[C2mim]OAc, 1-Ethyl-3-methylimidazolium acetate]
23S rRNA gene copies in 2.5 μl of the DNA extracts: ~6.48±0.02 | cell lysis efficiency with varying IL concentration: almost steadily decreased with its respective concentration

CCCCCC(=O)[O-].C[N+](C)(C)CCO [[Cho]Hex, Choline hexanoate]
23S rRNA gene copies in 2.5 μl of the DNA extracts: ~6.49±0.11 | cell lysis efficiency with varying IL concentration: slightly improved towards a concentration of 50% (w/v), only decreasing with lower concentrations of 30% (w/v) and 10% (w/v)
